From patent US4826850A, “Quinoline base compound, process for the preparation thereof and anticancer agent containing the same as pharmacologically efficacious component” (Mect Corporation, priority 1986, dated 1989)
In brackets after ≈: the same amount, converted by molar mass.

How the values were obtained:
P-388 = assay: Effect in prolonging life of P-388 mice; type: in vivo, mouse; details: CDF1 mice, P-388 i.p., control 100
Protocol: Test Example 2: Effect in Prolonging the Life of Mouse with Cancer, and Acute Toxicity of Drugs
Using P-388 mice with cancer, the pharmacological efficacy of the aforementioned compounds was evaluated by comparing with a control to which no such compound had been added.
Animal Used: CDF1 Mice (6 mice/group)
Number of Incubated Cells: 10^6 cells/mouse
Days at which Drugs Were Administered: Days 1 and 5, or days 1 to 9
Quantities of Drugs Administered: When a drug was administered at days 1 and 5, the maximum dosed quantity was set at LD50 or 400 mg/kg/day; and when a drug was administered at days 1 to 9, the maximum dosed quantity was set at 1/2×LD50 or 200 mg/kg/day. The experiment was conducted with groups of mice being administered the respective drugs at 3 dose levels incuding the maximum level, 1/2 of the maximum level and 1/4 of the maximum level.
When the T/C %, i.e. the ratio of the survival time (days) of a treated group (administered with a certain drug) to the survival time of a control group (administered with no drug), was 120% or more for a synthesized substance and 130% or more for a natural substance, the drug was appraised as effective (P). The survival time of the group administered with no drug is normally about 10 days (median survival time). In the following Table, an indication of "T/C 0%" means that not less than three mice were dead due to toxicity within 5 days.

KB cells = assay: Effect in inhibiting growth of KB-cells (in vitro); type: cell-based; details: Homo sapiens, 72 h, drug added day 1, cells counted day 4, inhibition rate 50%, read-out: Concentration giving 50% growth inhibition (ED50; Inhibition Rate 50%)
Protocol: (1) Effect in Inhibiting Growth of KB-Cells
The KB-cell, one of the cancer-causing tumor cells, was incubated in an in vitro floating incubation system, and the pharmacological effects of the Compounds (4) and (5) were compared with a control to which the compounds had not been added.
KB Cells (derived from a human epidermoid carcinoma of the mouth).
Eagles minimal essential medium (MEM)-10% calf serum.
37° C. in a carbon dioxide gas incubator (5% CO2).
Day 0: The KB cells were diluted to 2×10^4 /ml medium. 3 ml of the thus diluted KB cell suspension was incubated on a 60 mm plastic dish, at 2 dishes per dose level.
Day 1: Each drug was added into each dish so that the drug content in each dish was adjusted, respectively, to 100, 30, 10, 3 and 1 μg/ml.
Day 4: The cells were stripped from the surface of each dish, and the number of cells was counted using a Kohlter's counter.
A substance or drug having an ED50 value of not more than 4 μg/ml for a synthesized product was appraised as an effective substance. Meanwhile, in evaluating the effect of inhibiting growth of KB-cells, the number of surviving cells was counted by a Kohlter's counter, and the counted number was compared to that of the control (without the addition of the Compound (1)) to find the concentration of the drug for inhibiting the growth by 50%, the thus found concentration being estimated as the ED50 value.

[1] = acridine derivatives, literature; cited from earlier work

Row | SMILES | Life Prolonging Rate (T/C) (P-388; Dosage 12.5 mg/kg) [%] | Life Prolonging Rate (T/C) (P-388; Dosage 50 mg/kg) [%] | Life Prolonging Rate (T/C) (P-388; Dosage 100 mg/kg) [%] | Life Prolonging Rate (T/C) (P-388; Dosage 200 mg/kg) [%] | Life Prolonging Rate (T/C) (P-388; Dosage 400 mg/kg, T/C 0% means not less than three mice dead due to toxicity within 5 days) [%] | IC50 (KB cells) [µg/mL] | Life Prolonging Rate (T/C) (P-388; Dosage 25 mg/kg) [%] | Anticancer effect [1]
1 | COc1cc(NS(C)(=O)=O)ccc1Nc1c2c(nc3ccccc13)-c1ccccc1C2 [Compound 6] | 166 | 217 | 240 | 60 | 0 | < 0.3 | – | –
2 | COc1cc(NS(C)(=O)=O)ccc1Nc1c2ccccc2nc2c1oc1ccccc12 [Compound 4, N-(4-((benzofuro(3,2-b)quinoline-11yl)amino)-3-methoxyphenyl)methane sulfoneamide] | 180 | 200 | – | – | – | 0.3 (≈ 0.692 µM) | 195 | –
3 | COc1cc(NS(C)(=O)=O)ccc1Nc1c2c(nc3ccccc13)CCCC2 [tetrahydroamsacrine] | – | – | – | – | – | – | – | reduced anticancer effect
4 | COc1cc(NS(C)(=O)=O)ccc1Nc1c2ccccc2nc2c1sc1ccccc12 [Compound 5, N-(4-((benzothieno(3,2-b)quinoline-11-yl)amino)-3-methoxyphenyl)methanesulfoneamide] | 138 | 170 | – | – | – | 0.3 (≈ 0.667 µM) | 170 | –
5 | COc1cc(NS(C)(=O)=O)ccc1Nc1c2ccccc2nc2ccccc12 [amsacrine, N-(4-(9-acridinylamino)-3-methoxyphenyl)-methanesulfoneamide] | – | – | – | – | – | – | – | most effective derivative
